Laboratory results as given in article PMC117120 (BMC Biochemistry, 2002).
Where a chain is given by its changes, count along the chain named. Several values for one entry are separate records, joined by “and”; a condition that tells them apart may be missing. Equal values may be shown once.

What was measured:
wildtype mouse 5-HT3ASR = molecular target: T1, wildtype mouse 5-HT3ASR (Mus musculus, UniProt P23979); test: [^3H]granisetron saturation binding, wildtype receptor
T1 sequence (P23979 24-483 isoform P23979-2 limits assumed): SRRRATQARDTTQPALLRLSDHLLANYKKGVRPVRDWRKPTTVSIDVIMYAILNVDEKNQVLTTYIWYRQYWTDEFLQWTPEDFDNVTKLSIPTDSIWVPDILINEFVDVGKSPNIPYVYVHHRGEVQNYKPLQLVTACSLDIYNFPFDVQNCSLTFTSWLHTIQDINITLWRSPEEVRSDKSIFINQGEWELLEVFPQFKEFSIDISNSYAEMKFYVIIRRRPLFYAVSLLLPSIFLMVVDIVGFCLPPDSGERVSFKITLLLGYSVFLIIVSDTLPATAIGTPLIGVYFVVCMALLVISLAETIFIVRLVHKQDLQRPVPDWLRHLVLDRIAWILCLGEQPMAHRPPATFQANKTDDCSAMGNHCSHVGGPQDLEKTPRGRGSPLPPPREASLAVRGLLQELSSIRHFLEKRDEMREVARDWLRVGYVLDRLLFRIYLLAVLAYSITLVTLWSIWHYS

[1] = molecular target: T2, V143A mutant mouse 5-HT3ASR (Mus musculus, UniProt P23979, V144A); test: [^3H]granisetron saturation binding, V143A receptor; settings: ± SE
T2 sequence (P23979 24-483 isoform P23979-2 V144A): T1 sequence (P23979 24-483 isoform P23979-2 limits assumed) with V121A

[2] = molecular target: T3, R146A mutant mouse 5-HT3ASR (Mus musculus, UniProt P23979, R147A); test: [^3H]granisetron saturation binding, R146A receptor; settings: ± SE
T3 sequence (P23979 24-483 isoform P23979-2 R147A): T1 sequence (P23979 24-483 isoform P23979-2 limits assumed) with R124A

[3] = molecular target: T4, E148A mutant mouse 5-HT3ASR (Mus musculus, UniProt P23979, E149A); test: [^3H]granisetron saturation binding, E148A receptor
T4 sequence (P23979 24-483 isoform P23979-2 E149A): T1 sequence (P23979 24-483 isoform P23979-2 limits assumed) with E126A

[4] = molecular target: T5, V149A mutant mouse 5-HT3ASR (Mus musculus, UniProt P23979, V150A); test: [^3H]granisetron saturation binding, V149A receptor
T5 sequence (P23979 24-483 isoform P23979-2 V150A): T1 sequence (P23979 24-483 isoform P23979-2 limits assumed) with V127A

CN1C2CCCC1CC(NC(=O)c1nn(C)c3ccccc13)C2 (stereo not shown) [[^3H]granisetron]
Bmax (wildtype mouse 5-HT3ASR; absence of protease inhibitor, ± SE): 3.2 ± 0.13 pmol/mg protein and 3.2 ± .13 pmol/mg protein
Bmax (+ protease inhibitor) (wildtype mouse 5-HT3ASR; membranes prepared in the presence of protease inhibitor cocktail): 3.1 ± 0.11 pmoles/mg protein
Hill coefficient (n) (wildtype mouse 5-HT3ASR; ± SE): 1 ± 0.12
Bmax [1]: 1.1 ± .04 pmol/mg protein
Hill coefficient (n) [1]: 0.97 ± 0.13
Bmax [2]: 1.0 ± .16 pmol/mg protein
decrease in binding affinity (increased Kd), mutant vs wildtype ([3]; E148A vs wildtype): 5.3 fold
Bmax ([3]; E148A, ± SE): 5.5 pmol/mg protein and 5.5 ± 1.2 pmol/mg protein
Hill coefficient (n) ([3]; E148A, ± SE): 0.93 ± 0.19
binding of [^3H]granisetron [4]: No detectable binding
